Like-named read-outs stand apart in the source and are kept apart here.
What was measured:
[1] = test system: advanced soft tissue and bone sarcomas; conditions: cited from earlier work
[2] = parameters: method as in earlier work; conditions: 40 mg once daily 5 days per week, ref data on file with ARIAD Pharmaceuticals, Inc./Merck & Co.; cited from earlier work
clinical = conditions: for AUC(0-t) / half-life / concentration at 4 h / concentration at 8 h: human, whole blood
Description: Whole blood samples (2 mL each) for pharmacokinetic analyses were collected at the following time points: <5 minutes before dosing on days 1 through 5 and at 0.5, 1, 2, 4, 8, 24, and 72 hours after drug administration on day 5 of the first week of the first treatment cycle. Blood concentrations of ridaforolimus were determined using a validated liquid chromatography/tandem mass spectrometry assay as in previous ridaforolimus studies (Charles River Laboratories, Shrewsbury, MA). The pharmacokinetic parameters of AUC0–24h and elimination half-life (t1/2) were determined by noncompartmental modeling using WinNonlin software (Pharsight, Certara, Princeton, NJ).

[3] = test system: adults with advanced solid tumors; conditions: cited from earlier work
[4] = 7 pediatric patients aged 13 to 17 years

Compound: CO[C@H]1C[C@@H]2CC[C@@H](C)[C@@](O)(O2)C(=O)C(=O)N2CCCC[C@H]2C(=O)O[C@H]([C@H](C)C[C@@H]2CC[C@@H](OP(C)(C)=O)[C@H](OC)C2)CC(=O)[C@H](C)/C=C(\C)[C@@H](O)[C@@H](OC)C(=O)[C@H](C)C[C@H](C)/C=C/C=C/C=C/1C [ridaforolimus]
- Patients with partial response [1, 4]: 1
- Patients with progressive disease [1, 4]: 2
- Patients with stable disease [1, 4]: 4
- Reduction of risk of progression or death compared with placebo ([1]; oral, after benefit from preceding chemotherapy): 28%
- Day 5 AUC0–24h in adults, estimated geometric mean [2]: 1,739 h•ng/mL
- Exposure (day 5 AUC0–24h) higher than adult target level (clinical; 28 mg/m^2 vs adult RP2D 40 mg (1,739 h•ng/mL)): approximately 34%
- BSADN AUC, lower bound of 90% 1-sided confidence interval for geometric mean (clinical; 33 mg/m^2): 61.2 h•ng•m^2/(mL•mg)
- C4h, lower bound of 90% 1-sided confidence interval for geometric mean (clinical; 33 mg/m^2): 154 ng/mL
- C8h, lower bound of 90% 1-sided confidence interval for geometric mean (clinical; 33 mg/m^2): 100 ng/mL
- Day 5 AUC0–24h, lower bound of 90% 1-sided confidence interval for geometric mean (clinical; 33 mg/m^2): 2,020 h•ng/mL
- t1/2, lower bound of 90% 1-sided confidence interval for geometric mean (clinical; 33 mg/m^2): 23.0 h
- BSADN AUC (AUC normalized by BSA-adjusted dose), geometric mean (clinical; 33 mg/m^2, n = 11): 69.8 h•ng•m^2/(mL•mg)
- Exposure (day 5 AUC0–24h) higher than adult target level (clinical; 33 mg/m^2 vs adult RP2D 40 mg (1,739 h•ng/mL)): ~31%
- AUC(0-t) (clinical; oral, 22 mg/m2): 1340 ng·h/mL
- half-life (clinical; oral, 22 mg/m2, t1/2, arithmetic mean (SD), 22 mg/m^2, n = 3): 25.5 h
- half-life (clinical; oral, 22 mg/m2, t1/2, geometric mean (CV%), 22 mg/m^2, n = 3): 25.5 h
- half-life (clinical; oral, 22 mg/m2, t1/2, median (range), 22 mg/m^2, n = 3): 24.5 h
- concentration at 4 h (clinical; oral, 22 mg/m^2, C4h, arithmetic mean (SD), day 5, 22 mg/m^2, n = 4): 139 ng/mL
- concentration at 4 h (clinical; oral, 22 mg/m^2, C4h, geometric mean (CV%), day 5, 22 mg/m^2, n = 4): 131 ng/mL
- concentration at 8 h (clinical; oral, 22 mg/m^2, C8h, arithmetic mean (SD), day 5, 22 mg/m^2, n = 4): 74 ng/mL
- concentration at 8 h (clinical; oral, 22 mg/m^2, C8h, geometric mean (CV%), day 5, 22 mg/m^2, n = 4): 71 ng/mL
- AUC(0-t) (clinical; oral, 28 mg/m2): 2330 ng·h/mL
- half-life (clinical; oral, 28 mg/m2, t1/2, arithmetic mean (SD), 28 mg/m^2, n = 3): 28.2 h
- half-life (clinical; oral, 28 mg/m2, t1/2, geometric mean (CV%), 28 mg/m^2, n = 3): 27.2 h
- half-life (clinical; oral, 28 mg/m2, t1/2, median (range), 28 mg/m^2, n = 3): 26.5 h
- concentration at 4 h (clinical; oral, 28 mg/m^2, C4h, arithmetic mean (SD), day 5, 28 mg/m^2, n = 3): 228 ng/mL
- concentration at 4 h (clinical; oral, 28 mg/m^2, C4h, geometric mean (CV%), day 5, 28 mg/m^2, n = 3): 227 ng/mL
- concentration at 8 h (clinical; oral, 28 mg/m^2, C8h, arithmetic mean (SD), day 5, 28 mg/m^2, n = 3): 119 ng/mL
- concentration at 8 h (clinical; oral, 28 mg/m^2, C8h, geometric mean (CV%), day 5, 28 mg/m^2, n = 3): 116 ng/mL
- AUC(0-t) (clinical; oral, 33 mg/m2): 2280 ng·h/mL
- half-life (clinical; oral, 33 mg/m2, t1/2, arithmetic mean (SD), 33 mg/m^2, n = 9): 26.9 h
- half-life (clinical; oral, 33 mg/m2, t1/2, geometric mean (CV%), 33 mg/m^2, n = 9): 26 h
- half-life (clinical; oral, 33 mg/m2, t1/2, median (range), 33 mg/m^2, n = 9): 24.9 h
- concentration at 4 h (clinical; oral, 33 mg/m^2, C4h, arithmetic mean (SD), day 5, 33 mg/m^2, n = 11): 200 ng/mL
- concentration at 4 h (clinical; oral, 33 mg/m^2, C4h, geometric mean (CV%), day 5, 33 mg/m^2, n = 11): 184 ng/mL
- concentration at 8 h (clinical; oral, 33 mg/m^2, C8h, arithmetic mean (SD), day 5, 33 mg/m^2, n = 12): 118 ng/mL
- concentration at 8 h (clinical; oral, 33 mg/m^2, C8h, geometric mean (CV%), day 5, 33 mg/m^2, n = 12): 113 ng/mL
- half-life (clinical; oral, Mean (geometric) elimination half-lives, independent of dose level): 26 to 27 h
- Steady state from trough concentrations (predose days 1 through 5) (clinical; oral once daily): steady-state concentrations had been achieved at day 5
- Lag before absorption after dosing (clinical; oral, all dose levels): approximately 2 hours
- Time of highest blood concentrations after dosing (clinical; oral, all dose levels): ~4 h
- MTD ([3]; intravenous): 18.75 mg/day
- Adult RP2D ([3]; oral, once daily for 5 days per week): 40 mg
- MTD ([3]; oral, once daily × 5 days per week regimen): 40 mg

— paper PMC5356695, “A phase 1 study of oral ridaforolimus in pediatric patients with advanced solid tumors” (Oncotarget, 2016)
